For 45 compounds, mortality results are on record in US20250282754A1, “BICYCLIC COMPOUNDS AND THEIR USE AS PEST CONTROL AGENTS” (Pl Industries Ltd., priority 2022, published 2025).

What is called mortality is the share of the test organisms that died.

One assay relates to Nilaparvata lugens. Briefly: Nilaparvata lugens seedling dip test (paddy seedlings, third instar nymphs). The note with it: dead and moribund third instar nymphs 72 h after release, compared to untreated controls, read-out: percent mortality. Type of assay: in vivo. As to the method: The seedling dip method was used for testing, wherein the required quantity of the compound was weighed and dissolved in a tube containing a solvent solution. The tube was put on a vortex at 2000 rpm for proper mixing and then diluted with a 0.01% Triton-X solution to the desired test concentration. Paddy seedlings were dipped in the compound solution for 10 seconds, shade dried for 20 min and then the seedlings were placed in glass test tubes with the roots kept in water. 15 third instar nymphs of Nilaparvata lugens were released into each test tube and the tubes were kept in a plant growth chamber at a temperature of 25° C. and relative humidity of 75%. Observations on dead, moribund and alive nymphs were recorded 72 h after the release. Percent mortality was calculated by combining dead and moribund nymphs and comparing the result to the one of the untreated controls. The compounds
`CS(C)(=O)=Nc1ccc2nn(-c3cncnc3)cc2c1` [Compound 9]: the mortality at 300 ppm is no less than 70%.

Take `CCS(=O)(CC)=Nc1ccc2nn(-c3cncnc3)cc2c1` [Compound 11]: the mortality at 300 ppm was no less than 70%.

With `CS(=O)(Cc1ccccc1)=Nc1ccc2nn(-c3cncnc3)cc2c1` (centres unmarked) [Compound 16], the mortality at 300 ppm was no less than 70%.

On to `CC(C)(C)S(C)(=O)=Nc1ccc2nn(-c3cncnc3)cc2c1` (centres unmarked) [Compound 19], for which the mortality at 300 ppm is no less than 70%.

On to `CS(=O)(=Nc1ccc2nn(-c3cccnc3)cc2c1)c1ccccc1` (centres unmarked) [Compound 21], for which the mortality at 300 ppm was no less than 70%.

Consider `Cc1ccc(S(C)(=O)=Nc2ccc3nn(-c4cccnc4)cc3c2)cc1` (centres unmarked) [Compound 23], for which the mortality at 300 ppm was no less than 70%.

As for `CS(=O)(=Nc1ccc2nn(-c3cccnc3)cc2c1)c1ccc(Cl)cc1` (centres unmarked) [Compound 26], the mortality at 300 ppm was no less than 70%.

With `CCCCCS(C)(=O)=Nc1ccc2nn(-c3cccnc3)cc2c1` (centres unmarked) [Compound 27], the mortality at 300 ppm is no less than 70%.

Consider `CS(=O)(=Nc1ccc2nn(-c3cccnc3)cc2c1)c1cccnc1` (centres unmarked) [Compound 30], for which the mortality at 300 ppm is no less than 70%.

In the case of `CCCCCS(C)(=O)=Nc1ccc2nn(-c3cncnc3)cc2c1` (centres unmarked) [Compound 33], the mortality at 300 ppm was no less than 70%.

For `CC(C)S(=O)(=Nc1ccc2nn(-c3cccnc3)cc2c1)c1ccc(F)cc1` (centres unmarked) [Compound 38], the mortality at 300 ppm is no less than 70%.

Turning to `CCCCCS(C)(=O)=Nc1ccc2nn(-c3cncc(F)c3)cc2c1` (centres unmarked) [Compound 42], the mortality at 300 ppm was no less than 70%.

As for `Cc1ccc(S(C)(=O)=Nc2ccc3nn(-c4cncc(F)c4)cc3c2)cc1` (centres unmarked) [Compound 51], the mortality at 300 ppm was no less than 70%.

As to `CS(C)(=O)=Nc1cccc2nn(-c3cccnc3)cc12` [Compound 72], the mortality at 300 ppm is no less than 70%.

As for `CCCS(=O)(CCC)=Nc1cccc2nn(-c3cccnc3)cc12` [Compound 78], the mortality at 300 ppm was no less than 70%.

Take `CS(C)(=O)=Nc1cccc2nn(-c3cncc(F)c3)cc12` [Compound 87]: the mortality at 300 ppm was no less than 70%.

With `CCS(=O)(=NC(=O)c1ccc2nn(-c3cccnc3)cc2c1)C(C)C` (centres unmarked) [Compound 105, N-(ethyl(isopropyl)(oxo)-λ^6-sulfaneylidene)-2-(pyridin-3-yl)-2H-indazole-5-carboxamide], the mortality at 300 ppm was no less than 70%.

For the compound `COc1nn(-c2ccc3nn(-c4cncc(C)c4)cc3c2)c(=O)n1C` [Compound 111, 5-methoxy-4-methyl-2-(2-(5-methylpyridin-3-yl)-2H-indazol-5-yl)-2,4-dihydro-3H-1,2,4-triazol-3-one], the mortality at 300 ppm is no less than 70%.

On to `COc1nn(-c2ccc3nn(-c4cccnc4C)cc3c2)c(=O)n1C` [Compound 113, 5-methoxy-4-methyl-2-(2-(2-methylpyridin-3-yl)-2H-indazol-5-yl)-2,4-dihydro-3H-1,2,4-triazol-3-one], for which the mortality at 300 ppm was no less than 70%.

As for `COc1nn(-c2ccc3nn(-c4cnccc4C)cc3c2)c(=O)n1C` [Compound 114, 5-methoxy-4-methyl-2-(2-(4-methylpyridin-3-yl)-2H-indazol-5-yl)-2,4-dihydro-3H-1,2,4-triazol-3-one], the mortality at 300 ppm is no less than 70%.

Take `COc1nn(-c2ccc3nn(-c4ccc(C)nc4)cc3c2)c(=O)n1C` [Compound 115, 5-methoxy-4-methyl-2-(2-(6-methylpyridin-3-yl)-2H-indazol-5-yl)-2,4-dihydro-3H-1,2,4-triazol-3-one]: the mortality at 300 ppm was no less than 70%.

`COc1nn(-c2cccc3nn(-c4cccnc4)cc23)c(=O)n1C` [Compound 125, 5-methoxy-4-methyl-2-(2-(pyridin-3-yl)-2H-indazol-4-yl)-2,4-dihydro-3H-1,2,4-triazol-3-one]: the mortality at 300 ppm was no less than 70%.

Consider `COc1nn(-c2ccc3nn(-c4cccnc4)cc3c2)c(=O)n1C1CC1` [Compound 127, 4-cyclopropyl-5-methoxy-2-(2-(pyridin-3-yl)-2H-indazol-5-yl)-2,4-dihydro-3H-1,2,4-triazol-3-one], for which the mortality at 300 ppm was no less than 70%.

Turning to `CS(=O)(=Nc1cnc2nn(-c3cccnc3)cc2c1)c1ncccc1F` (centres unmarked) [Compound 152], the mortality at 300 ppm is no less than 70%.

As for `CS(=O)(=Nc1cnc2nn(-c3cccnc3)cc2c1)c1cccnc1Cl` (centres unmarked) [Compound 153], the mortality at 300 ppm was no less than 70%.

On to `CC(C)CS(=O)(CC(C)C)=Nc1ccc2nn(-c3cncnc3)c(Cl)c2c1` [Compound 181], for which the mortality at 300 ppm is no less than 70%.

For the compound `CCCCS(=O)(CC)=Nc1ccc2nn(-c3cncc(F)c3)c(Cl)c2c1` (centres unmarked) [Compound 194], the mortality at 300 ppm is no less than 70%.

For the compound `CS(C)(=O)=Nc1ccc(Cl)c2nn(-c3cncc(F)c3)cc12` [Compound 202], the mortality at 300 ppm is no less than 70%.

For the compound `CC(C)S(C)(=O)=Nc1ccc(Cl)c2nn(-c3cncc(F)c3)cc12` (centres unmarked) [Compound 206], the mortality at 300 ppm was no less than 70%.

`CCOc1nn(-c2cccc3nn(-c4cccnc4)cc23)c(=O)n1Cc1ccc(OC(F)(F)F)cc1` [Compound 331, 5-ethoxy-2-(2-(pyridin-3-yl)-2H-indazol-4-yl)-4-(4-(trifluoromethoxy)benzyl)-2,4-dihydro-3H-1,2,4-triazol-3-one]: the mortality at 300 ppm was no less than 70%.

Take `CCOc1nn(-c2cccc3nn(-c4cccnc4)cc23)c(=O)n1Cc1ccc(F)cc1` [Compound 343, 5-ethoxy-4-(4-fluorobenzyl)-2-(2-(pyridin-3-yl)-2H-indazol-4-yl)-2,4-dihydro-3H-1,2,4-triazol-3-one]: the mortality at 300 ppm was no less than 70%.

`COc1nn(-c2ccc3nn(-c4cccnc4)c(Cl)c3c2)c(=O)n1C` [Compound 347, 2-(3-chloro-2-(pyridin-3-yl)-2H-indazol-5-yl)-5-methoxy-4-methyl-2,4-dihydro-3H-1,2,4-triazol-3-one]: the mortality at 300 ppm was no less than 70%.

For `COc1nn(-c2cccc3nn(-c4cccnc4)cc23)c(=O)n1Cc1ccccc1F` [Compound 356, 4-(2-fluorobenzyl)-5-methoxy-2-(2-(pyridin-3-yl)-2H-indazol-4-yl)-2,4-dihydro-3H-1,2,4-triazol-3-one], the mortality at 300 ppm was no less than 70%.

Consider `COc1nn(-c2cccc3nn(-c4cncnc4)cc23)c(=O)n1Cc1ccccc1F` [Compound 357, 4-(2-fluorobenzyl)-5-methoxy-2-(2-(pyrimidin-5-yl)-2H-indazol-4-yl)-2,4-dihydro-3H-1,2,4-triazol-3-one], for which the mortality at 300 ppm was no less than 70%.

For the compound `CCOc1nn(-c2cccc3nn(-c4cccnc4)cc23)c(=O)n1Cc1ccccc1F` [Compound 359, 5-ethoxy-4-(2-fluorobenzyl)-2-(2-(pyridin-3-yl)-2H-indazol-4-yl)-2,4-dihydro-3H-1,2,4-triazol-3-one], the mortality at 300 ppm was no less than 70%.

`CCOc1nn(-c2cccc3nn(-c4cncnc4)cc23)c(=O)n1Cc1ccccc1F` [Compound 360, 5-ethoxy-4-(2-fluorobenzyl)-2-(2-(pyrimidin-5-yl)-2H-indazol-4-yl)-2,4-dihydro-3H-1,2,4-triazol-3-one]: the mortality at 300 ppm is no less than 70%.

Consider `COc1nn(-c2ccc3nn(-c4cccnc4)cc3c2)c(=O)n1Cc1ccccc1Cl` [Compound 367, 4-(2-chlorobenzyl)-5-methoxy-2-(2-(pyridin-3-yl)-2H-indazol-5-yl)-2,4-dihydro-3H-1,2,4-triazol-3-one], for which the mortality at 300 ppm was no less than 70%.

Turning to `CC(C)S(=O)(=NC#N)c1ccc2nn(-c3cccnc3)cc2c1` (centres unmarked) [Compound 392, N-(isopropyl(oxo)(2-(pyridin-3-yl)-2H-indazol-5-yl)-λ^6-sulfaneylidene)cyanamide], the mortality at 300 ppm was no less than 70%.

Regarding `CC(C)S(=O)(=NC(=O)C(F)(F)F)c1ccc2nn(-c3cccnc3)cc2c1` (centres unmarked) [Compound 394], the mortality at 300 ppm is no less than 70%.

As for `CC(C)S(=O)(=NC(=O)C(F)F)c1ccc2nn(-c3cccnc3)cc2c1` (centres unmarked) [Compound 396], the mortality at 300 ppm is no less than 70%.

For `CC(=O)N=S(=O)(c1cnc2nn(-c3cncc(F)c3)cc2c1)C(C)C` (centres unmarked) [Compound 402], the mortality at 300 ppm was no less than 70%.

`CC(C)S(=O)(=NC(=O)C(F)(F)F)c1ccc2nn(-c3cncnc3)cc2c1` (centres unmarked) [Compound 417]: the mortality at 300 ppm was no less than 70%.

For the compound `N=S(=O)(CC1CC1)c1ccc2nn(-c3cccnc3)c(Cl)c2c1` (centres unmarked) [Compound 454, (3-chloro-2-(pyridin-3-yl)-2H-indazol-5-yl)(cyclopropylmethyl)(imino)-λ^6-sulfanone], the mortality at 300 ppm is no less than 70%.

As to `CCS(=O)(=Nc1ccnc(C)c1)c1ccc2nn(-c3cncc(F)c3)cc2c1` (centres unmarked) [Compound 464], the mortality at 300 ppm was no less than 70%.

For the compound `CCN=S(=O)(CC1CCC1)c1ccc2nn(-c3cncc(F)c3)cc2c1` (centres unmarked) [Compound 471, (cyclobutylmethyl)(ethylimino)(2-(5-fluoropyridin-3-yl)-2H-indazol-5-yl)-λ^6-sulfanone], the mortality at 300 ppm was no less than 70%.

For the next assay, the system named is Bemisia tabaci. The assay is described as follows: Bemisia tabaci leaf dip test (brinjal leaves, whitefly adults). The note with it: foliar, dead and moribund whitefly adults 72 h after release, compared to untreated controls, read-out: percent mortality. Type of assay: in vivo. The protocol:
The leaf dip method was used for testing, wherein the required quantity of the compound was weighed and dissolved in a tube containing a solvent solution. The tube was put on a vortex at 2000 rpm for proper mixing and then diluted with a 0.01% Triton-X solution to the desired test concentration. Brinjal leaves were dipped in the compound solution for 10 seconds; shade dried for 20 min and then placed, with the abaxial side of the leaf up, on 4 ml of a solidified 1% agar-agar solution in respective container caps. Known numbers of freshly emerged whitefly adults were collected, using a modified aspirator, and released into a perforated container in which the cap containing the treated leaf was placed. The containers were kept in a plant growth chamber at a temperature of 25° C. and relative humidity of 70%. Observations on dead, moribund and alive adults were recorded 72 h after the release. Percent mortality was calculated by combining dead and moribund adults and comparing the result to the one of the untreated controls. The compounds 1 9 11 18 25 28 29 30 31
In the case of `CS(C)(=O)=Nc1ccc2nn(-c3cncnc3)cc2c1` [Compound 9], the mortality at 300 ppm was no less than 70%.

Turning to `CCS(=O)(CC)=Nc1ccc2nn(-c3cncnc3)cc2c1` [Compound 11], the mortality at 300 ppm was no less than 70%.

Regarding `CS(=O)(=Nc1ccc2nn(-c3cccnc3)cc2c1)c1cccnc1` (centres unmarked) [Compound 30], the mortality at 300 ppm was no less than 70%.

As to `CCCCCS(C)(=O)=Nc1ccc2nn(-c3cncnc3)cc2c1` (centres unmarked) [Compound 33], the mortality at 300 ppm was no less than 70%.

As to `CC(C)S(=O)(=Nc1ccc2nn(-c3cccnc3)cc2c1)c1ccc(F)cc1` (centres unmarked) [Compound 38], the mortality at 300 ppm was no less than 70%.

For `CS(C)(=O)=Nc1cccc2nn(-c3cccnc3)cc12` [Compound 72], the mortality at 300 ppm is no less than 70%.

With `CCCS(=O)(CCC)=Nc1cccc2nn(-c3cccnc3)cc12` [Compound 78], the mortality at 300 ppm is no less than 70%.

For `CS(C)(=O)=Nc1cccc2nn(-c3cncc(F)c3)cc12` [Compound 87], the mortality at 300 ppm was no less than 70%.
